Test system: CD4+ T cells
Test: RNAseq differential gene expression
Assay type: cell-based, human
Source text: All statistical analyses and plots were done with R software v3.5. For normalization and processing, we used edgeR v3.22.1, EDASeq v2.14 and DESeq2 v1.20. We decided to use counts per million (CPM) over transcripts per million (TPM) mainly because TPM discards a lot of information about the original count sizes and thus would have produced too much noise for differential testing. The first step was to filter the data. We considered a gene to be expressed at a reasonable level in a sample if it had at least five counts for each million mapped reads in that sample. For marker selection, we used a type 1^(*) error α threshold set to 5%. enabling a highly flexible approach to the differential analyses despite the lack of replicates. For the same reason, the log2 fold change cutoff was set to 1.5 for both positive and negative values, and the cutoff p-value was typically ≤0.05. Those appropriate cutoffs allowed us to identify differentially expressed genes. The false discovery rate (FDR) values were computed for illustration purposes but were not taken into account in the decision due to the lack of replicates. The first methodology choice was Benjamini and Hochberg. This procedure provides less stringent control of type 1 errors compared to familywise error rate (FWER) procedures (such as the Bonferroni correction). We added an MDS plot for the data with R and edgeR package. The MDS plot produces a plot in which distances between samples correspond to the leading biological coefficient of variation (BCV) between those samples. […] We also produced several volcano plots with R and the EDASeq package. These plots were a good representation of the differential expression (DE) testing in the RNA-Seq experiments. […] The green points highlighted are markers that satisfied our selection criteria (significant in both p-value and log2FC). The yellow points highlighted are genes that satisfied the log2FC criterion but failed the p-value criterion. We retained these points to investigate further even though they had no decisional value.
A full-detailed report describing the complete analysis was submitted to Gene Expression Omnibus (GEO, https://www.ncbi.nlm.nih.gov/geo/query/acc.cgi?acc=GSE116073). Total RNA extraction was performed according to the Qiagen miRNeasy □ kit. RNA concentrations were determined using Qubit[…] fluorometric quantification and purity by the RNA 6000 Bioanalyzer kit (Agilent). RNA-Seq libraries were constructed with the TruSeq stranded mRNA sample preparation (low-throughput protocol) kit from Illumina, according to the manufacturer's instructions. Aliquots of 1.2 μg of total RNA were used for the construction of the libraries. The final cDNA libraries were validated with a Fragment Analyzer (Advanced Analytical, Ankeny, Iowa) and quantified with a KAPA qPCR kit (Kapa Biosystems, Wilmington, Mass.). On the 8 sequencing lanes of a flow cell V4, the 32 libraries were pooled in equal proportions by sets of 4 libraries per lane, denatured with NaOH and diluted to […] before clustering. Cluster formation and primer hybridization and single-end read, 50-cycle sequencing were performed on the cBot and HiSeq 2500 (Illumina, San Diego, Calif.), respectively. Image analysis and base calling were performed using the HiSeq Control Software with the Real-Time Analysis component. Demultiplexing was performed using Illumina's sequencing analysis software. The quality of the data was assessed using FastQC from the Babraham Institute and the Illumina software SAV (Sequence Analysis Viewer). Potential contaminants were investigated with the FastQ Screen software from the Babraham Institute.
In the data preprocessing step, the HiSeq control and real-time analysis software generates image analysis, base calling, and base call quality automatically in real time. “Dirty” raw reads were defined as reads that contained adaptor sequence or high content of unknown bases and low-quality reads. […]

[1] = ABX464_I_vs_DMSO_I, infected CD4 T cells
[2] = ABX464_NI_vs_DMSO_NI, uninfected CD4 T cells
[3] = uninfected CD4+ T cells, ABX464 vs untreated

FC(F)(F)Oc1ccc(Nc2ccc3cccc(Cl)c3n2)cc1 [ABX464, 8-chloro-N-(4-(trifluoromethoxy)phenyl)quinolin-2-amine]
FC CECR1 [1]: 3.412 | FC DPF2 [1]: 3.071 | FC LARS2 [1]: 2.991 | FC LGALS3 [1]: 3.009 | FC NBPF20 [1]: 8.164 | FC NOP9 [1]: 3.02 | FC SCML1 [1]: 7.214 | FC TOR1AIP2 [1]: 14.39 | log2(FC) CECR1 [1]: 1.771 | log2(FC) DPF2 [1]: 1.619 | log2(FC) LARS2 [1]: 1.58 | log2(FC) LGALS3 [1]: 1.589 | log2(FC) NBPF20 [1]: 3.029 | log2(FC) NOP9 [1]: 1.594 | log2(FC) SCML1 [1]: 2.851 | log2(FC) TOR1AIP2 [1]: 3.847 | FC CECR1 [2]: 3.587 | FC DPF2 [2]: 2.95 | FC HELLS [2]: 0.2107 | FC HIST1H1D [2]: 0.3392 | FC HOPX [2]: 3.35 | FC LARS2 [2]: 2.99 | FC MZT2B [2]: 0.3168 | FC NDUFB7 [2]: 0.3486 | FC RPS19BP1 [2]: 0.3377 | FC SCML1 [2]: 9.378 | FC SNORD3A [2]: 0.1318 | FC TOR1AIP2 [2]: 11.2 | log2(FC) CECR1 [2]: 1.843 | log2(FC) DPF2 [2]: 1.561 | log2(FC) HELLS [2]: −2.246 | log2(FC) HIST1H1D [2]: −1.56 | log2(FC) HOPX [2]: 1.744 | log2(FC) LARS2 [2]: 1.58 | log2(FC) MZT2B [2]: −1.658 | log2(FC) NDUFB7 [2]: −1.52 | log2(FC) RPS19BP1 [2]: −1.566 | log2(FC) SCML1 [2]: 3.229 | log2(FC) SNORD3A [2]: −2.924 | log2(FC) TOR1AIP2 [2]: 3.486 | number of upregulated genes (infected CD4+ T cells, ABX464 vs untreated): 9 genes | number of downregulated genes (infected CD4+ T cells, ABX464 vs untreated (FIG. 2E legend)): 6 genes | number of downregulated genes [3]: 6 genes | number of upregulated genes [3]: 7 genes

Reference: patent publication US20220145406A1, “BIOMARKERS, AND USES IN TREATMENT OF VIRAL INFECTIONS, INFLAMMATIONS, OR CANCER” (ABIVAX, priority 2018, published 2022)
